The values that follow come from publication PMC11241262, “Unravelling the Antifibrinolytic Mechanism of Action of the 1,2,3-Triazole Derivatives” (International Journal of Molecular Sciences, 2024).

For series [1], the system named is whole blood clots. Briefly: Whole blood dosage (effective antifibrinolytic dosage, tPA-triggered clot lysis). To be noted: 10 µg/mL tPA, 37 °C. Further details: species or system human. The method, then:
Blood was obtained by venipuncture from healthy donors after they signed an informed consent form. Blood was transferred into vacuum non-anticoagulant Vacutainer® tubes (BD, Franklin Lakes, NJ, USA). Blood samples were immediately used for the assay after extraction.
Glass tubes were prepared with 20 µL of a mixture of tPA, in a final concentration of 10 µg/mL, and the evaluated compounds, in a final concentration of 10, 20, 40, or 60 µM in Tris HCl buffer. A control clot was obtained with 20 µL of tPA with no compound. Then, 800 µL of blood was transferred to each tube and tubes were monitored for clot formation and lysis. The assay was performed with casual shaking. […] The ex vivo effective dosage for each compound was determined by their ability to inhibit complete clot degradation. Photographs were taken after 24 h of incubation.

A short description of series [2]: in vivo. To be noted: both sexes, Wistar, rat, iv. The method, then:
A MTD study was performed for compound 5 in Wistar rats and Beagle dogs. A total of 25 male and 25 female Wistar rats were received in the experimental room and acclimatized for a period of 5 days prior to randomization. The environmental and housing conditions maintained during the experiment were identical to those described in the pharmacokinetic study. At the start of dosing, rats were between 6 and 7 w.o., and their body weight varied no more than ±20% from the mean body weight for each sex. During randomization, 20 male and 20 female rats were selected for the study, which were randomly allocated to four different dose level groups: D1, D2, D3, and D4. Each group consisted of 5 male and 5 female rats. The remaining 5 male and 5 female rats were returned to the animal facility.
Dose formulations of compound 5 were administered by an intravenous bolus injection through the tail vein, using a sterile needle attached to a graduated syringe. Sterile water also served as a vehicle in the MTD assay. A fixed dose volume of 5 mL/kg b. wt. was used, and individual doses were adjusted according to the most recent recorded body weight of each rat. […]
Rats were subjected to twice-daily monitoring for clinical, mortality, and morbidity signs throughout the study. […] Body weight was recorded on days 1 (before treatment), 4, 8, 11, and 14 of the study. […]

Series [3] is described as follows: in vivo. The note with it: dog. The procedure: In the case of dogs, one male and one female Beagle dog were selected for the study. A period of 5 days was used to allow dogs to acclimatize, and at the start of dosing, they were between 5 and 6 months old. Dogs were housed individually per sex in an environmentally controlled room, maintained at 24 ± 2 °C and 71.5 ± 4.5% relative humidity, on a 12–12 h light–dark cycle (beginning at 06:00 h) with 17 or 22 air changes per hour. Dogs were provided with 300 g feed every day and with water ad libitum.
Compound 5 was administered via an intravenous bolus injection through the cephalic vein of the forelimb, using a sterile needle attached to a graduated syringe. An initial dose level of 50 mg/kg b. wt. […] Following a washout period of 7 days, a dose of 75 mg/kg b. wt. […] A constant volume of 1 mL/kg b. wt. was used, with individual doses adjusted to the most recent recorded body weight of each animal. Dogs were observed twice daily for clinical, mortality, and morbidity signs throughout the study period of 7 days. Body weight was recorded on dosing day and every two days during the assay period. Additionally, a daily record of individual dog feed intake and leftover feed was maintained. Blood samples were obtained prior to dosing and on day 7. Blood was extracted either from the cephalic vein in the forelimb or the lateral saphenous vein in the hind limb. Around 2.0 mL of blood was collected in non-heparin centrifuge tubes for serum separation to conduct clinical chemistry estimations. An additional 0.5 mL of blood was collected in EDTA-containing vials for hematology analysis and another 0.5 mL of blood was collected in tubes containing a 3.2% sodium citrate solution for Prothrombin time determination. Dogs were fasted overnight, with only water allowed prior to blood collection. Hematology and clinical chemistry determinations are available upon request. Dogs were euthanized by an intravenous injection of barbiturate (thiopentone sodium 100 mg/kg b. wt.). Then, a comprehensive gross necropsy was performed. Dogs were first examined for external abnormalities. The cranial, thoracic, and abdominal cavities were then dissected, and a thorough examination of the organs was conducted. Specifically, the liver, testes, uterus, brain, and kidneys were collected and subjected to microscopic examination using paraffin-embedded tissue stained with hematoxylin-eosin.

The nature of series [4]: in vivo. To be noted: dog, iv, 5 mg/kg; for Morbidity / Mortality: 24 h. The procedure:
For the pharmacokinetic study in Beagle dogs, a total of 3 male and 3 female dogs were selected. They were acclimatized for 5 days before dosing and at the start of dosing, dogs were between 36 and 37 months old. […] Sterile water was also selected as a vehicle for injection of compound 5. […] A constant dose volume of 1 mL/kg body weight was administered, adjusted according to the most recently recorded body weight of each dog. A single dose of 5 mg/kg b. wt. was selected in the case of dogs.
Blood collection, plasma separation, and storage procedures were conducted following the same procedure as described for rats. Blood samples (600 µL) were collected from the cephalic vein of the forelimb for each dog. However, the concentration of compound 5 was determined using LC-MS/MS analysis. A column with identical characteristics to the one used in rats was employed, with a flow rate of 0.65 mL/min, a binary elution mode, and a run time of 6.0 min. Plasma samples were analyzed to determine the concentration of the active ingredient, and subsequently, the pharmacokinetic parameters were calculated. After a washout period of 7 days, dogs were returned back to stock.

As to `O=c1[nH]nc(-c2cn(C3CCNCC3)nn2)o1` [compound 5], the “effective dosage (concentration preventing complete clot degradation after 24 h)” value in series [1] came to 10 µM. Also, the MTD at 14 days in series [2] was found to be 300 mg/kg. The same compound gave an MTD at 7 days in series [3] (both, Beagle, iv) of 75 mg/kg. For the same compound, in series [3], the “Microscopic Findings, kidneys” value was “Kidneys (bilateral): min ima l infiltration”; the “Microscopic Findings, testes” value is on record as “Testes (bilateral): immature – present”; the “hematology and clinical chemistry parameters” value is given as “did not show any alteration”; the “terminal body and organ weight” value is reported as “no treatment-related alterations”. Further, in series [4] (female, Beagle), the “Clinical signs observed: N of dogs with Mild vomiting” value is recorded as 1; the Cmax (commonly the peak of the concentration-time curve) came to 15800 ng/mL; the Kel was found to be 0.23 h‐1; the Tmax – broadly, the time from dosing to the highest level – is 4.8 min. Further, in series [4] (female, Beagle), the half-life (commonly the time in which the quantity being followed falls by half) was 3.04 h, the Morbidity was 0 number of dogs and the Mortality was 0 number of dogs. Moreover, in series [4] (male, Beagle), the “Clinical signs observed: N of dogs with Mild vomiting” value was 1, the Cmax stood at 14000 ng/mL, the Kel is given as 0.24 h‐1 and the Tmax was found to be 4.8 min. In series [4] (male, Beagle), this compound showed a half-life of 2.88 h. Also, in series [4] (male, beagle), the Morbidity is reported as 0 number of dogs and the Mortality is reported as 0 number of dogs.
